Source: PubChem BioAssay AID328 (DTP/NCI, 2004)
Several values for one entry are separate records, joined by “and”; a condition that tells them apart may be missing. Equal entries are not always repeated. Inconclusive results and toxic doses are left out.

Test system: BDF1 mice, P388 leukemia ip, median survival T/C
Experiment: NCI In Vivo Anticancer Drug Screen. Data for tumor model P388 Leukemia (intraperitoneal) in B6D2F1 (BDF1) mice
Details: endpoint: median survival time, higher = longer survival
Outline: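 Steps: implant the tumour, treat one group with compound and another with vehicle, record survival, then divide treated by control.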

[1] = dose: 100.0 mg/kg/injection, schedule: Q04DX003 (ip), vehicle: Klucel (hydroxypropylcellulose) (HPC)
[2] = dose: 200.0 mg/kg/injection, schedule: Q04DX003 (ip), vehicle: Klucel (hydroxypropylcellulose) (HPC)
[3] = dose: 400.0 mg/kg/injection, schedule: Q04DX003 (ip), vehicle: Klucel (hydroxypropylcellulose) (HPC)
[4] = dose: 50.0 mg/kg/injection, schedule: Q01DX009 (ip), vehicle: saline with Tween-80
[5] = dose: 100.0 mg/kg/injection, schedule: Q01DX009 (ip), vehicle: saline with Tween-80
[6] = dose: 200.0 mg/kg/injection, schedule: Q01DX009 (ip), vehicle: saline with Tween-80
[7] = dose: 100.0 mg/kg/injection, schedule: Q01DX009 (ip), vehicle: saline

Q: Which T/C (dose: 0.75 mg/kg/injection, schedule: Q01DX009 (ip), vehicle: saline) does the source give for `C=CCN1C(=O)C=CC1=O` here?
A: 102 % of control

Q: What about the T/C (dose: 3.0 mg/kg/injection, schedule: Q01DX009 (ip), vehicle: saline) of the same compound?
A: 117 % of control

Q: With `O=[N+]([O-])c1ccc(/C=C/c2ccccn2)s1` as the compound, how does the T/C [1] read?
A: 100 % of control

Q: And the T/C [2]?
A: 100 % of control

Q: And the T/C [3]?
A: 100 % of control

Q: With `COc1ccc(/C=C2\CCCC3=C2NC(=S)NC3c2ccc(OC)cc2)cc1` (centres undefined) as the compound, how does the T/C [4] read?
A: 107 % of control

Q: And the T/C [5]?
A: 97 % of control

Q: And the T/C [6]?
A: 91 % of control

Q: How did the T/C (dose: 100.0 mg/kg/injection, schedule: Q01DX001 (ip), vehicle: Klucel (hydroxypropylcellulose) (HPC)) turn out when `CC(=O)c1ccccc1Br` was run?
A: 95 % of control

Q: What about the T/C [1] of the same compound?
A: 95 % of control

Q: And the T/C (dose: 200.0 mg/kg/injection, schedule: Q01DX001 (ip), vehicle: Klucel (hydroxypropylcellulose) (HPC))?
A: 108 % of control

Q: What about the T/C [2] of the same compound?
A: 100 % of control

Q: What about the T/C (dose: 400.0 mg/kg/injection, schedule: Q01DX001 (ip), vehicle: Klucel (hydroxypropylcellulose) (HPC)) of the same compound?
A: 100 % of control

Q: And the T/C [3]?
A: 100 % of control

Q: For `O=C(NC(COC(=O)C(Cc1ccccc1)NC(=O)c1ccccc1)Cc1ccccc1)c1ccccc1` (centres undefined), which T/C (dose: 4.0 mg/kg/injection, schedule: Q01DX009 (ip), vehicle: Klucel (hydroxypropylcellulose) (HPC)) is on record?
A: 102 % of control

Q: What about the T/C (dose: 8.0 mg/kg/injection, schedule: Q01DX009 (ip), vehicle: Klucel (hydroxypropylcellulose) (HPC)) of the same compound?
A: 104 % of control

Q: And the T/C (dose: 16.0 mg/kg/injection, schedule: Q01DX009 (ip), vehicle: Klucel (hydroxypropylcellulose) (HPC))?
A: 93 % of control

Q: And the T/C (dose: 32.0 mg/kg/injection, schedule: Q01DX009 (ip), vehicle: Klucel (hydroxypropylcellulose) (HPC))?
A: 98 % of control

Q: With `CCCCCCCCCCCCC(C(=O)O)C1C=CCC1` (centres undefined) as the compound, how does the T/C (dose: 100.0 mg/kg/injection, schedule: Q01DX001 (ip), vehicle: other) read?
A: 100 % of control

Q: And the T/C (dose: 200.0 mg/kg/injection, schedule: Q01DX001 (ip), vehicle: other)?
A: 100 % of control

Q: What about the T/C (dose: 400.0 mg/kg/injection, schedule: Q01DX001 (ip), vehicle: other) of the same compound?
A: 100 % of control

Q: What does the source list for `O=C(NC(CSC(c1ccccc1)(c1ccccc1)c1ccccc1)C(=O)O)OCc1ccccc1` (centres undefined)?
A: T/C (dose: 50.0 mg/kg/injection, schedule: Q01DX009 (ip), vehicle: saline): 100 % of control and 110 % of control; T/C [7]: 122 % of control; T/C (dose: 100.0 mg/kg/injection, schedule: Q04DX003 (ip), vehicle: saline): 100 % of control; T/C (dose: 200.0 mg/kg/injection, schedule: Q01DX009 (ip), vehicle: saline): 118 % of control; T/C (dose: 200.0 mg/kg/injection, schedule: Q04DX003 (ip), vehicle: saline): 104 % of control; T/C (dose: 400.0 mg/kg/injection, schedule: Q04DX003 (ip), vehicle: saline): 100 % of control

Q: Which T/C [4] does the source give for `CC(C)NC(=O)c1ccccc1S(=O)c1ccccc1C(=O)NC(C)C` here?
A: 104 % of control

Q: And the T/C [5]?
A: 100 % of control

Q: And the T/C [6]?
A: 108 % of control

Q: Which results are given for `O=C1C=CCCCC1`?
A: T/C (dose: 25.0 mg/kg/injection, schedule: Q01DX009 (ip), vehicle: saline with Tween-80): 109 % of control; T/C (dose: 25.0 mg/kg/injection, schedule: Q04DX003 (ip), vehicle: saline with Tween-80): 103 % of control; T/C [4]: 109 % of control and 112 % of control; T/C (dose: 50.0 mg/kg/injection, schedule: Q04DX003 (ip), vehicle: saline with Tween-80): 88 % of control; T/C [5]: 104 % of control; T/C (dose: 100.0 mg/kg/injection, schedule: Q04DX003 (ip), vehicle: saline with Tween-80): 100 % of control

Q: With `CC(=O)N(CC1CNc2nc(N)[nH]c(=O)c2N1C(=O)CCCCCCC(=O)N1c2c(nc(N)[nH]c2=O)NCC1CN(C(C)=O)c1ccc(C(=O)NC(CCC(=O)O)C(=O)O)cc1)c1ccc(C(=O)NC(CCC(=O)O)C(=O)O)cc1` (centres undefined) as the compound, how does the T/C (dose: 50.0 mg/kg/injection, schedule: Q04DX003 (ip), vehicle: sodium bicarbonate) read?
A: 103 % of control

Q: What about the T/C (dose: 100.0 mg/kg/injection, schedule: Q04DX003 (ip), vehicle: sodium bicarbonate) of the same compound?
A: 91 % of control

Q: What about the T/C (dose: 200.0 mg/kg/injection, schedule: Q04DX003 (ip), vehicle: sodium bicarbonate) of the same compound?
A: 112 % of control

Q: How did the T/C (dose: 250.0 micrograms/kg/injection, schedule: Q04DX003 (ip), vehicle: saline) turn out when `CCC1(O)CC2CN(CCc3c([nH]c4ccccc34)C(C(=O)OC)(c3cc4c(cc3OC)N(C)C3C(O)(C(=O)NCCSSCCNC(=O)C5(O)C(O)C6(CC)C=CCN7CCC8(c9cc(C%10(C(=O)OC)CC%11CN(CCc%12c%10[nH]c%10ccccc%12%10)CC(O)(CC)C%11)c(OC)cc9N(C)C58)C76)C(O)C5(CC)C=CCN6CCC43C65)C2)C1` (centres undefined) was run?
A: 179 % of control

Q: What about the T/C (dose: 432.0 micrograms/kg/injection, schedule: Q04DX003 (ip), vehicle: saline) of the same compound?
A: 162 % of control

Q: What about the T/C (dose: 500.0 micrograms/kg/injection, schedule: Q04DX003 (ip), vehicle: saline) of the same compound?
A: 185 % of control

Q: And the T/C (dose: 648.0 micrograms/kg/injection, schedule: Q04DX003 (ip), vehicle: saline)?
A: 268 % of control

Q: And the T/C (dose: 720.0 micrograms/kg/injection, schedule: Q04DX003 (ip), vehicle: saline)?
A: 164 % of control

Q: And the T/C (dose: 1000.0 micrograms/kg/injection, schedule: Q04DX003 (ip), vehicle: saline)?
A: 224 % of control

Q: What about the T/C (dose: 1080.0 micrograms/kg/injection, schedule: Q04DX003 (ip), vehicle: saline) of the same compound?
A: 244 % of control

Q: And the T/C (dose: 1200.0 micrograms/kg/injection, schedule: Q04DX003 (ip), vehicle: saline)?
A: 171 % of control

Q: And the T/C (dose: 1800.0 micrograms/kg/injection, schedule: Q04DX003 (ip), vehicle: saline)?
A: 155 % of control

Q: And the T/C (dose: 2000.0 micrograms/kg/injection, schedule: Q04DX003 (ip), vehicle: saline)?
A: 221 % of control

Q: How did the T/C (dose: 66.0 mg/kg/injection, schedule: Q01DX009 (ip), vehicle: saline) turn out when `O=C(O)C(O)C(O)C(O)C(O)CO.[Mn]` (centres undefined) was run?
A: 116 % of control

Q: What about the T/C [7] of the same compound?
A: 116 % of control

Q: For `CC(=O)/C=C/c1ccc([N+](=O)[O-])cc1`, which T/C (dose: 100.0 mg/kg/injection, schedule: Q04DX003 (ip), vehicle: saline sonified) is on record?
A: 90 % of control

Q: And the T/C (dose: 200.0 mg/kg/injection, schedule: Q04DX003 (ip), vehicle: saline sonified)?
A: 90 % of control

Q: And the T/C (dose: 400.0 mg/kg/injection, schedule: Q04DX003 (ip), vehicle: saline sonified)?
A: 100 % of control
